# From patent US4444776A, “Dipyrido (4,3-B) (3,4-F) indoles, process for obtaining them, therapeutical use and pharmaceutical compositions” (priority 1977, dated 1984)
# How the values were obtained:
# Friend leukemia virus = assay: Test 2: viro-induced Friend leukemia (Table II); format: in vivo, DBA2 mice; conditions: for mean spleen weight (range): 21 days after virus; for ILS % / Weight of the spleens on the 21st day / Mean survival time (first-last death): VFA 1/250, 5 hrs after the virus
# From the text: The protective power of the compounds according to the invention have also been sought on the Friend viro-induced leukemia (J. Exp. Med. 1957-105-307-318) and it has been determined that the compounds according to the invention are antiviral and antitumoral agents in lower animals.
# Test 2. Viro-induced Leukemia: Friend leukemia
# The protective power of the compounds according to the invention was sought on Friend leukemia, inoculated into DBA2 mice aged from 5-6 weeks. The viral inoculum was produced from a homogenate of leukemic spleen (p/volume) diluted to 1/250 in isotonic phosphate buffer without Ca^++ nor Mg^++ (PBS), corresponding to 100 SD 50 (i.e. to the dose of virus which induces a splenomegaly in 50% of the inoculated mice).
# The virus was injected by the IP route and in a volume of 0.2 ml. The product to be tested was injected 5 hours after the virus or 1 day after the virus at the dose indicated in a volume of 0.1 ml (IP route). Each group of twenty control mice received the virus and a placebo or the product to be tested, 10 mice were sacrified on the 21st day, and their spleen removed and weighed. The mice were considered as leukemic when the weight of their spleen exceed 200 mg. For the 10 mice, the life span of the animals was determined.
# replication of the DNA = assay: Test 6: DNA replication in synchronised cells; format: cell-based; conditions: first minutes following addition
# L1210 leukemia [1] = assay: Test 15: L1210 leukemia, compound of formula 8 (Table XI); format: in vivo, mouse; conditions: for ILS % / MST / Range of death: 50 mg/kg
# Protocol: The proceeding of test 1 was repeated with the compound of formula 8 obtained according to example 1, i.e. 5,11-dimethyl-dipyrido[4,3-b][3,4-f]indole. In this test, the compound of formula 8 was injected four days after the inoculation of the cells (50 mg/kg). The results are shown in table XI wherein the results obtained with the same compound injected one day after the cell inoculation are also reported (see experiment no. 2 in table I).
# Cl3/8 cells = assay: Test 5: cytotoxic effect in vitro, Cl3/8 cells; format: cell-based, hamster
# Protocol: Test 5: Cytotoxic effect in vitro
# The cytotoxic effects of the compounds according to the invention were tested in vitro on cultures of hamster, human and mouse cells.
# In particular, the BHK21 strain of hamster cells and a clone derived from this strain transformed by Hamster Sarcoma Virus HS5 clone) were used.
# 5 hours later, the cells were well attached to the plastic support, and the products to be tested were added, dilutions having been made thereof in water or in DMSO (dimethylsulfoxide) if the product is sparingly soluble in water. In this latter case, a control was made with the same final concentration of DMSO in the culture medium.
# The state of the cells was examined 24, 48 and 72 hours afterwards.
# L 1210 leukemia [2] = assay: Test 11: L 1210 leukemic mice, examples 7 and 8 (Table VIII); format: in vivo, mouse; parameters: MTS: unit not given beside the values; conditions: J+1
# Protocol: This test was carried out with 10^3, 10^4 and 10^5 leukemic cells on day J. This test was also carried out with the compound of example 7, i.e. 1-[(γ-diethylaminopropyl)amino]-5-methyl-dipyrido [4,3-b][3,4-f] indole (compound 21).
# L 1210 leukemia [3] = assay: Test 12: single vs fractioned dose, L 1210 leukemic mice (Table IX); format: in vivo, mouse; parameters: MTS: unit not given beside the values
# L1210 leukemia [4] = assay: Test 16: structure-activity of R'1 substitution, L1210 (Table XII); format: in vivo, mouse (C57B16xDBA/2)F1; parameters: MST: unit not given here; conditions: for 60 days surv. / ILS % / MST / Range of death: day +1
# Protocol: Test 16: Relationship between structure and activity of various dipyrido indoles differing by the R'1 substitution.
# L1210 leukemia has been maintained by weekly passages on (C57B16xDBA/2)F1 mice. On day 0, mice were inoculated by I.P. route with various numbers of L1210 ascitic tumor cells in volumes of 0.1 ml. Subsequently as indicated, drugs were administrated in Ca^++ and Mg^++ free PBS solutions (Gibco) or in Mac Coy's medium (Gibso or Microbiological Associates). […]
# mice = assay: Test 21: toxicity after intraperitoneal injection
# Protocol: All drugs were dissolved in aqueous solutions adjusted at pH 5 with acetic acid and inoculated to the mice under a volume of 0.1 ml I.P. after dilution in Mac Coy's medium.
# The toxicity of the drugs after intraperitoneal injection was estimated from the mortality rate up to the 30th day.
# [5] = 10^4 cells, 0.2 mg/mouse single at J+3
# [6] = 10^4 cells, 4 × 0.05 mg/mouse at J+3+4+5+6
# [7] = 10^5 cells, 0.2 mg/mouse single at J+3
# [8] = 10^5 cells, 4 × 0.05 mg/mouse at J+3+4+5+6
# [9] = 10^4 cells, 5 mg/kg, control MST 11.8
# [10] = second group: 10^4 cells, 5 mg/kg, control MST 10.9
structure (smiles),measurement,setting,value
"Cc1c2ccncc2c(C)c2c1[nH]c1ccncc12 [Example 1, 5,11-dimethyl dipyrido [4,3-b][3,4-f] indole]",mean spleen weight (range),Friend leukemia virus; 25 mg/kg,"1,803 (718-2,635) mg"
same,mean spleen weight (range),Friend leukemia virus; 50 mg/kg,"960 (373-1,230) mg"
same,ILS %,Friend leukemia virus; 0.1 mg,59.5%
same,Weight of the spleens on the 21st day,Friend leukemia virus; 0.1 mg,2013 mg
same,Mean survival time (first-last death),"Friend leukemia virus; 0.1 mg, IP",47.6 (26-78) Days
same,ILS %,Friend leukemia virus; 0.5 mg,14.6%
same,Mean survival time (first-last death),Friend leukemia virus; 0.5 mg,34.2 (22.54) Days
same,Weight of the spleens on the 21st day,Friend leukemia virus; 0.5 mg,1803 mg
same,ILS %,Friend leukemia virus; 1 mg,39.7%
same,Mean survival time (first-last death),Friend leukemia virus; 1 mg,41.7 (14-81) Days
same,Weight of the spleens on the 21st day,Friend leukemia virus; 1 mg,"959,6 mg"
same,"replication of the DNA, initiation and elongation steps",replication of the DNA,"stops, in the first minutes following its addition, the replication of the DNA"
same,ILS %,"L1210 leukemia [1]; 10^4 cells, day +1",11.8%
same,MST,"L1210 leukemia [1]; 10^4 cells, day +1",12.3 days
same,Range of death,"L1210 leukemia [1]; 10^4 cells, day +1",11-14
same,ILS %,"L1210 leukemia [1]; 10^4 cells, day +4",14.7%
same,MST,"L1210 leukemia [1]; 10^4 cells, day +4",12 days
same,Range of death,"L1210 leukemia [1]; 10^4 cells, day +4",10-16
same,ILS %,"L1210 leukemia [1]; 10^5 cells, day +1",38.1%
same,MST,"L1210 leukemia [1]; 10^5 cells, day +1",12.85 days
same,Range of death,"L1210 leukemia [1]; 10^5 cells, day +1",10-13
same,ILS %,"L1210 leukemia [1]; 10^5 cells, day +4",15.7%
same,MST,"L1210 leukemia [1]; 10^5 cells, day +4",10.3 days
same,Range of death,"L1210 leukemia [1]; 10^5 cells, day +4",10-11
same,ILS %,"L1210 leukemia [1]; 10^6 cells, day +1",47.3%
same,MST,"L1210 leukemia [1]; 10^6 cells, day +1",11.5 days
same,Range of death,"L1210 leukemia [1]; 10^6 cells, day +1",9-15
same,ILS %,"L1210 leukemia [1]; 10^6 cells, day +4",34.3%
same,MST,"L1210 leukemia [1]; 10^6 cells, day +4",9 days
same,Range of death,"L1210 leukemia [1]; 10^6 cells, day +4",8-13
same,"increased life span (ILS %), early vs late administration",L1210 leukemia [1]; product given earlier after the cells inoculum,higher when the product was given earlier
"CCN(CC)CCCNc1nccc2c(C)c3[nH]c4ccncc4c3cc12 [Example 7, 1-(γ-diethylaminopropyl)amino-5-methyl-dipyrido-[4,3-b][3,4-f] indole]",cytotoxic activity compared with 2-methyl-9-hydroxy-ellipticinium acetate and 9-hydroxy-ellipticine,Cl3/8 cells; Table III summary,just as active as the already known derivatives
same,activity compared with products presently used as antitumoral agents in lower animals,Cl3/8 cells; general statement,"just as active, or more so"
same,ILS %,"L 1210 leukemia [2]; 10^3 cells, 0.1 mg/mouse",15.4%
same,MTS,"L 1210 leukemia [2]; 10^3 cells, 0.1 mg/mouse",15
same,Number of surviving mice,"L 1210 leukemia [2]; 10^3 cells, 0.1 mg/mouse",4
same,ILS %,"L 1210 leukemia [2]; 10^3 cells, 0.2 mg/mouse",25.4%
same,MTS,"L 1210 leukemia [2]; 10^3 cells, 0.2 mg/mouse",16.3
same,Number of surviving mice,"L 1210 leukemia [2]; 10^3 cells, 0.2 mg/mouse",7
same,ILS %,"L 1210 leukemia [2]; 10^4 cells, 0.1 mg/mouse",65.1%
same,MTS,"L 1210 leukemia [2]; 10^4 cells, 0.1 mg/mouse",18
same,Number of surviving mice,"L 1210 leukemia [2]; 10^4 cells, 0.1 mg/mouse",1
same,ILS %,L 1210 leukemia [3]; [5],19.32%
same,MTS,L 1210 leukemia [3]; [5],14.2
same,Surviving mice,L 1210 leukemia [3]; [5],1
same,ILS %,L 1210 leukemia [3]; [6],21%
same,MTS,L 1210 leukemia [3]; [6],14.4
same,Surviving mice,L 1210 leukemia [3]; [6],0
same,ILS %,L 1210 leukemia [3]; [7],36.35%
same,MTS,L 1210 leukemia [3]; [7],14.18
same,ILS %,L 1210 leukemia [3]; [8],28.85%
same,MTS,L 1210 leukemia [3]; [8],13.4
same,"antitumoral activity, single vs fractioned dose",L 1210 leukemia [3]; same dose single or on 4 occasions,a single dose has greater antitumoral activity than the same dose injected on 4 occasions
same,60 days surv.,"L1210 leukemia [4]; 10^3 cells, 0.5 mg/kg",3
same,ILS %,"L1210 leukemia [4]; 10^3 cells, 0.5 mg/kg",17.4%
same,MST,"L1210 leukemia [4]; 10^3 cells, 0.5 mg/kg",16.2
same,Range of death,"L1210 leukemia [4]; 10^3 cells, 0.5 mg/kg",14-20
same,60 days surv.,"L1210 leukemia [4]; 10^3 cells, 5 mg/kg",5
same,ILS %,"L1210 leukemia [4]; 10^3 cells, 5 mg/kg",23.2%
same,MST,"L1210 leukemia [4]; 10^3 cells, 5 mg/kg",17
same,Range of death,"L1210 leukemia [4]; 10^3 cells, 5 mg/kg",15-22
same,60 days surv.,"L1210 leukemia [4]; 10^4 cells, 0.5 mg/kg",0
same,ILS %,"L1210 leukemia [4]; 10^4 cells, 0.5 mg/kg",11.5%
same,MST,"L1210 leukemia [4]; 10^4 cells, 0.5 mg/kg",13.54
same,Range of death,"L1210 leukemia [4]; 10^4 cells, 0.5 mg/kg",11-15
same,60 days surv.,L1210 leukemia [4]; [9],1
same,ILS %,L1210 leukemia [4]; [9],33.3%
same,MST,L1210 leukemia [4]; [9],16.2
same,Range of death,L1210 leukemia [4]; [9],13-21
same,antitumoral activity compared with Ellipticinium acetate (HUM),L1210 leukemia [4]; Table XII summary,compete favorably with Ellipticinium acetate (HUM)
same,60 days surv.,L1210 leukemia [4]; [10],1
same,ILS %,L1210 leukemia [4]; [10],65.1%
same,MST,L1210 leukemia [4]; [10],18
same,Range of death,L1210 leukemia [4]; [10],14-21
same,time of deaths after drug administration,mice; IP,4 to 8 days
same,minimal quantity resulting in 100% deaths,"mice; IP, mortality up to the 30th day",50 mg/kg
same,toxicity (toxic dose),mice; Test 17 text,50 mg/kg
